Reference: the supplement of paper PMC10307832

Legend:
Assay in all cases: relative viability (nuclei count vs DMSO), 5 days (fraction); higher = more cells survive
[1] = compound: COc1nc(N)nc2c1ncn2[C@@H]1O[C@H](CO)[C@@H](O)[C@@H]1O [Nelarabine] + COc1cccc2cc(-c3nc([C@H]4CC[C@H](C(=O)O)CC4)n4ncnc(N)c34)[nH]c12 [OSI-027] (partner 0.5 µM)
In short: (§1)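 Values are medians from duplicate plates. Each reflects relative viability, defined as the nuclei count of treated wells over that of vehicle wells. Lung cancer cell lines in 1536-well plates were pin-tool dosed one day after seeding with one drug alone or with a fixed anchor-drug dose plus five library-drug doses (not always all listed) in √10 steps, then fixed, stained and imaged at 4× after 5 days.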

[2] = compound: C=CCn1c(=O)c2cnc(Nc3ccc(N4CCN(C)CC4)cc3)nc2n1-c1cccc(C(C)(C)O)n1 [Adavosertib] + Nc1ncn([C@H]2C[C@H](O)[C@@H](CO)O2)c(=O)n1 [Decitabine] (partner 2 µM)
In short: as §1

[3] = compound: C=CCn1c(=O)c2cnc(Nc3ccc(N4CCN(C)CC4)cc3)nc2n1-c1cccc(C(C)(C)O)n1 [Adavosertib] + C[C@@H](Oc1cc(-c2cnn(C3CCNCC3)c2)cnc1N)c1c(Cl)ccc(F)c1Cl [Crizotinib] (partner 1 µM)
In short: as §1

[4] = compound: C=CCn1c(=O)c2cnc(Nc3ccc(N4CCN(C)CC4)cc3)nc2n1-c1cccc(C(C)(C)O)n1 [Adavosertib] + COc1cccc2cc(-c3nc([C@H]4CC[C@H](C(=O)O)CC4)n4ncnc(N)c34)[nH]c12 [OSI-027] (partner 0.5 µM)
In short: as §1

Cell Line	relative viability ([1]; first compound 0.01 µM)	relative viability ([1]; first compound 0.03162 µM)	relative viability ([1]; first compound 0.1 µM)	relative viability ([1]; first compound 0.3162 µM)	relative viability ([1]; first compound 1 µM)	relative viability ([2]; first compound 0.01 µM)	relative viability ([2]; first compound 0.03162 µM)	relative viability ([2]; first compound 0.1 µM)	relative viability ([2]; first compound 0.3162 µM)	relative viability ([3]; first compound 0.01 µM)	relative viability ([3]; first compound 0.03162 µM)	relative viability ([3]; first compound 0.1 µM)	relative viability ([3]; first compound 0.3162 µM)	relative viability ([4]; first compound 0.01 µM)	relative viability ([4]; first compound 0.03162 µM)	relative viability ([4]; first compound 0.1 µM)	relative viability ([4]; first compound 0.3162 µM)
NCI-H596	0.82	0.668	0.698	0.692	0.792	1.1	1.02	1.02	0.866	1.04	1.07	1.11	1.03	0.784	0.914	0.752	0.732
NCI-H727	0.565	0.722	0.534	0.562	0.695	0.843	0.845	0.899	0.909	0.804	0.994	0.737	0.871	0.599	0.546	0.523	0.575
EPLC-272H	0.28	0.248	0.269	0.311	0.233	0.355	0.344	0.448	0.308	1.01	1.03	0.797	0.652	0.31	0.279	0.242	0.208
NCI-H2170	0.716	0.67	0.704	0.656	0.753	0.426	0.452	0.5	0.429	1.23	1.17	1.19	1.35	0.703	0.786	0.632	0.597
NCI-H1355	0.481	0.434	0.367	0.363	0.382	0.347	0.351	0.396	0.368	1.04	0.985	1.04	0.908	0.396	0.387	0.364	0.355
SK-MES-1	0.698	0.579	0.62	0.683	0.611	0.368	0.385	0.364	0.227	0.92	1.02	0.983	0.791	0.681	0.576	0.428	0.198
LOU-NH91	0.738	0.785	0.657	0.765	0.748	0.819	0.821	0.798	0.852	0.709	0.712	0.788	0.726	0.65	0.707	0.742	0.677
HCC-78	0.306	0.35		0.385	0.372	0.661	0.679	0.731	0.618	0.34	0.351	0.339	0.347	0.355	0.354	0.325	0.339
NCI-H322M	0.575	0.544	0.431	0.516	0.612	0.724	0.67	0.698	0.526		0.982	0.834	0.743	0.621	0.547	0.451	0.312
HCC-15	0.817	0.559	0.675	0.703	0.778	0.714	0.719	0.667	0.858	0.826	0.818	0.96	0.967	0.669	0.786	0.756	0.802
A-427	0.489	0.42	0.373	0.443	0.52	0.53	0.554	0.55	0.469	0.972	0.931	1.02	0.962	0.472	0.411	0.481	0.268
NCI-H460	1.06	1.08	0.971	1.08	0.79	0.569	0.449	0.512	0.393	0.929	0.822	1.11	0.627	0.758	0.667	0.561	0.341
NCI-H661	0.53	0.652	0.738	0.775	0.651	0.595	0.577	0.489	0.4	1.08	1.1	1.13	1.04	0.762	0.723	0.685	0.284
HARA	0.645	0.583	0.439	0.671	0.487	0.486	0.554	0.473	0.423	1	1.06	1.04	0.354	0.485	0.486	0.591	0.368
NCI-H1437	1.04	0.859	0.845	0.948	0.796	0.57	0.633	0.636	0.618	1	0.973	1.04	0.922	0.931	0.868	0.973	0.788
201T	0.85	0.638	0.762	1.15	0.85	0.851	0.877	0.898	0.971	1.05	0.992	1.08	1.07	0.667	0.734	0.669	0.666
LC-2-ad	0.922	0.879	0.754	0.81	0.875	0.696	0.733	0.87	0.889	0.499	0.442	0.547	0.528	0.834	0.94	0.892	0.694
NCI-H441	0.535	0.497	0.592	0.782	0.647	0.29	0.266	0.264	0.289	0.751	0.637	0.838	0.568	0.758	0.56	0.471	0.425
